The source of these data is paper PMC4774911, “Biochemical Screening of Five Protein Kinases from Plasmodium falciparum against 14,000 Cell-Active Compounds” (PLoS ONE, 2016).

One experiment addresses PRKACA (Homo sapiens, UniProt P17612). As to the kind of experiment: biochemical.
In another experiment the target is STK38L (Homo sapiens, UniProt Q9Y2H1). The experiment is described as follows: biochemical.
The next experiment has as its target BMX (Homo sapiens, UniProt P51813). The experiment is described as follows: biochemical.
The next experiment concerns the target PIK3C3 (Homo sapiens, UniProt Q8NEB9). The experiment is described as follows: biochemical.
The next experiment has as its target KIT (Homo sapiens, UniProt P10721). The experiment is described as follows: biochemical.
For a further experiment, the target named is MAPKAPK3 (Homo sapiens, UniProt Q16644). The experiment is described as follows: biochemical.
For a further experiment, the target named is PKG (Plasmodium falciparum, UniProt Q8I719). The experiment is described as follows: PKG IC50 (supplementary data file). It is filed as biochemical. An excerpt: Supplement pone.0149996.s003.xls, sheet "combined_1_sorted"
A further experiment relates to 3D7 PFLDH. On the set-up: method as in F.J. Gamo et al., Nature 2010; concentration or dose not given beside the values. To be noted: downloaded from ChEMBL, ref F.J. Gamo et al., Nature 2010; cited from earlier work.
The target in experiment [1] is T1, Plasmodium falciparum calcium-dependent protein kinase 4 (CDPK4) (Plasmodium falciparum, UniProt Q8IBS5).
T1 construct: 6-Histidine (N); made in house
T1 sequence (Q8IBS5 1-528): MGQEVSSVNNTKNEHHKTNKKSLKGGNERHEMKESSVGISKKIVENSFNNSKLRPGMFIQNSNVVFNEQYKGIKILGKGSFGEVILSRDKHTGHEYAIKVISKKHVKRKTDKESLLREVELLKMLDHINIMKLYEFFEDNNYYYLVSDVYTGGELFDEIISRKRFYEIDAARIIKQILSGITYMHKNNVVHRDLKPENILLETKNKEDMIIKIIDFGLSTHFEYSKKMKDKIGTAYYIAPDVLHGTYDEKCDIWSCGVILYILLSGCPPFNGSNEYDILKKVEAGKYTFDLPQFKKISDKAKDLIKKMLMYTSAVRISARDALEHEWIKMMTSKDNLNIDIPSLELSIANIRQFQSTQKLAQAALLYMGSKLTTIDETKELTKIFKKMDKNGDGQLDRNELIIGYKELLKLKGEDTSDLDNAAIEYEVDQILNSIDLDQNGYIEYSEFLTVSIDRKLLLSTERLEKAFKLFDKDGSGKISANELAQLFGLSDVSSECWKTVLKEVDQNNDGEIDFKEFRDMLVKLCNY
The experiment is described as follows: CDPK4 Kinase-Glo ATP-consumption screen and dose-response. Format: biochemical. The following applies: hits below 1 uM. The gist of the method: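 ATP consumption by recombinant P. falciparum CDPK4 or CDPK1 measured as residual ATP by Kinase-Glo luminescence, with 40 μM Syntide-2 substrate and 90 min incubation stopped with 5 mM EGTA. Single-point screen at 1 μM final, followed by dose-response; no-substrate wells as negative control.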
A general note: Kinase-Glo measures the ATP left after a reaction by luminescence.

Experiment [2] relates to DD2. On the set-up: method as in F.J. Gamo et al., Nature 2010. To be noted: downloaded from ChEMBL, ref F.J. Gamo et al., Nature 2010; cited from earlier work.
The target in another experiment is LOC100128443. The experiment is described as follows: biochemical. Also noted: species or system human, K562 (extract); replicate k of n = 2 (each experiment ID is one independent experiment; two experiment IDs per compound). To be noted: human; read-out: KDapp.
Another experiment deals with ABL1. The experiment is described as follows: biochemical. On the set-up: species or system human, K562 (extract); replicate k of n = 2 (each experiment ID is one independent experiment; two experiment IDs per compound). The following applies: human; read-out: KDapp.
In another experiment the target is ILK (Homo sapiens, UniProt Q13418). As to the kind of experiment: biochemical.
The next experiment addresses PLK1 (Homo sapiens, UniProt P53350). The experiment is described as follows: biochemical.
For a further experiment, the target named is HIPK2 (Homo sapiens, UniProt Q9H2X6). As to the kind of experiment: biochemical.
For a further experiment, the target named is HIPK1 (Homo sapiens, UniProt Q86Z02). The experiment is described as follows: biochemical.
A further experiment concerns the target LRRK2 (Homo sapiens, UniProt Q5S007). As to the kind of experiment: biochemical.
The subject of experiment [3] is DD2. Also noted: method as in F.J. Gamo et al., Nature 2010. To be noted: P. falciparum Dd2; downloaded from ChEMBL ref F.J. Gamo et al., Nature 2010; cited from earlier work.
In the next experiment the target is AAK1 (Homo sapiens, UniProt Q2M2I8). As to the kind of experiment: Kinobead competition assay in K562 extract: AAK1.
Another experiment concerns the target PRKCI (Homo sapiens, UniProt P41743). The experiment is described as follows: biochemical.
The target in another experiment is TAOK1 (Homo sapiens, UniProt Q7L7X3). As to the kind of experiment: biochemical.
A further experiment addresses ARAF (Homo sapiens, UniProt P10398). As to the kind of experiment: biochemical.
The target in a further experiment is RPS6KB1 (Homo sapiens, UniProt P23443). As to the kind of experiment: biochemical.
Another experiment has as its system P. falciparum DD2. Also noted: method as in ChEMBL. The following applies: ref ChEMBL; cited from earlier work.
Where [4] appears, read: AAK1, K-562 extract, conc. series 20.0-0.0uM, channel assignment not given.

Read-outs that look alike come from different tables or passages of the source.

Chain of AAK1 (Q2M2I8 whole entry): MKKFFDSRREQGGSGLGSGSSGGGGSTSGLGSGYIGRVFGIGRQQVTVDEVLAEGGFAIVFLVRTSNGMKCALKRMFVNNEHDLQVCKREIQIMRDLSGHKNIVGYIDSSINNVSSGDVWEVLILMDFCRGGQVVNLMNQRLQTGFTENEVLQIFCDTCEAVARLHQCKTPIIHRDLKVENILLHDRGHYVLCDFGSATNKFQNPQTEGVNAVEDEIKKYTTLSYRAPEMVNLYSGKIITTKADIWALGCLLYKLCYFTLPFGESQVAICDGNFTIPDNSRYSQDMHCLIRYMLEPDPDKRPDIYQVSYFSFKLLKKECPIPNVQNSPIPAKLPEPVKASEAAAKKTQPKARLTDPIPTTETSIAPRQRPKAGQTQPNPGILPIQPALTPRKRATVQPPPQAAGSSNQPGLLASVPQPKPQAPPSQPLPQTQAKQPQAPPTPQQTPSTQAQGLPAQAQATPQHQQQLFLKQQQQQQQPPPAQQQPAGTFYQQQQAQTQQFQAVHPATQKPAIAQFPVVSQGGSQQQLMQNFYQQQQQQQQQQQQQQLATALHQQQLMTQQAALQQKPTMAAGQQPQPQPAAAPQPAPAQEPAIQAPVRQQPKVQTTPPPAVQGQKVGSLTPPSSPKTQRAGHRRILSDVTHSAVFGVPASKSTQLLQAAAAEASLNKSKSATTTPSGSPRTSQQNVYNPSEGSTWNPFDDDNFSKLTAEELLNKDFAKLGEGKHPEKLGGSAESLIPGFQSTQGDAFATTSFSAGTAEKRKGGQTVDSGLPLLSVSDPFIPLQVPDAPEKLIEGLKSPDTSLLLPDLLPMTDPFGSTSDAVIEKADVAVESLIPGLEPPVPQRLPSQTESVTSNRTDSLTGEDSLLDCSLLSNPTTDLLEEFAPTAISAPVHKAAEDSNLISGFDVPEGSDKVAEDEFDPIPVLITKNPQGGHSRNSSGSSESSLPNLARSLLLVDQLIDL
Chain of PIK3C3 (Q8NEB9 whole entry): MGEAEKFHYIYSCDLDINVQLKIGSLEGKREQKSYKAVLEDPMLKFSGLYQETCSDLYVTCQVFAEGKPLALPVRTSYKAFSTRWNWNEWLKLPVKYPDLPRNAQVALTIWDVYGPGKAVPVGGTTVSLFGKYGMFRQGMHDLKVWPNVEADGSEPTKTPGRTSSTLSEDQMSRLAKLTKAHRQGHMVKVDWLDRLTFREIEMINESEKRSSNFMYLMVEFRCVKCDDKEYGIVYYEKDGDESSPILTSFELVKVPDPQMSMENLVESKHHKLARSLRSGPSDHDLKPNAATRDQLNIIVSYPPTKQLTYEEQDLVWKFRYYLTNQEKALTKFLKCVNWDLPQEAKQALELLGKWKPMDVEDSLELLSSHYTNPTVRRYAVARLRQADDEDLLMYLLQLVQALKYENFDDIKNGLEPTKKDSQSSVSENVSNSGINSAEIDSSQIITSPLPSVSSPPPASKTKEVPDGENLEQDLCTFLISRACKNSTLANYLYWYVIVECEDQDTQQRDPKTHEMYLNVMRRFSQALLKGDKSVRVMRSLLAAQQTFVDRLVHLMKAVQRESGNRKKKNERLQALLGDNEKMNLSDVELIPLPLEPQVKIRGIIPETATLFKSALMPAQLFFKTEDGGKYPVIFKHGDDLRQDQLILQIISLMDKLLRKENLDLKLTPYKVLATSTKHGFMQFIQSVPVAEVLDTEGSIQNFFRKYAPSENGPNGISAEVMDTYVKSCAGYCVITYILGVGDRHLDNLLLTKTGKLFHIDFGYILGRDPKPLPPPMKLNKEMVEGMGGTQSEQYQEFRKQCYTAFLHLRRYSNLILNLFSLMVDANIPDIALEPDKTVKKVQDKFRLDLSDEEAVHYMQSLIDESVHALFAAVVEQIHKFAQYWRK
Chain of TAOK1 (Q7L7X3 whole entry): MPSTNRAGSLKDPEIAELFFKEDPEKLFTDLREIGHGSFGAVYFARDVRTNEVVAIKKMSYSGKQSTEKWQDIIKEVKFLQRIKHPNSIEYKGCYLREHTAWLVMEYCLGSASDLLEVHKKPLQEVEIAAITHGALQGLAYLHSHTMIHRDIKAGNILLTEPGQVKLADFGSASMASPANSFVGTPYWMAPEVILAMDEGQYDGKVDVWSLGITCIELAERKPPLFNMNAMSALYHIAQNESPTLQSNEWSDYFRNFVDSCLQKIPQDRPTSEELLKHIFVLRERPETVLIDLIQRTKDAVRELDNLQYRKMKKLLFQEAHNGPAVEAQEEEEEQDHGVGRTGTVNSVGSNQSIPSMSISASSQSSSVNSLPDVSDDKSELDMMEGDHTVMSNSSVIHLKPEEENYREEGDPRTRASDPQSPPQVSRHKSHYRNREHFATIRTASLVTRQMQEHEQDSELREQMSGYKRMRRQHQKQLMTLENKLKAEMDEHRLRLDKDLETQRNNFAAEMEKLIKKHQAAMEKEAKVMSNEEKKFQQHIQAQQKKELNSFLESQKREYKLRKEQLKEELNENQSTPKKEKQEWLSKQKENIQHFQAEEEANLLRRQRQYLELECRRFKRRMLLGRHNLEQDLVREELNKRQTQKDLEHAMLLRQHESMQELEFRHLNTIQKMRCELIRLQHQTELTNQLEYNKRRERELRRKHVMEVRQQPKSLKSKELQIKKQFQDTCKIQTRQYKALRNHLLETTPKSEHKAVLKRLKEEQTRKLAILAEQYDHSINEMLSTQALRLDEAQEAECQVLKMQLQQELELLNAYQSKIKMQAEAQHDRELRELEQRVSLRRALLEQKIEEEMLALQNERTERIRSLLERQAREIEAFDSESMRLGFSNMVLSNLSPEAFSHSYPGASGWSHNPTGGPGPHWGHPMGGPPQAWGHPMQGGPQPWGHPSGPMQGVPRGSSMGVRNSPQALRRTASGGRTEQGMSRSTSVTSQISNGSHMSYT
Chain of PRKCI (P41743 whole entry): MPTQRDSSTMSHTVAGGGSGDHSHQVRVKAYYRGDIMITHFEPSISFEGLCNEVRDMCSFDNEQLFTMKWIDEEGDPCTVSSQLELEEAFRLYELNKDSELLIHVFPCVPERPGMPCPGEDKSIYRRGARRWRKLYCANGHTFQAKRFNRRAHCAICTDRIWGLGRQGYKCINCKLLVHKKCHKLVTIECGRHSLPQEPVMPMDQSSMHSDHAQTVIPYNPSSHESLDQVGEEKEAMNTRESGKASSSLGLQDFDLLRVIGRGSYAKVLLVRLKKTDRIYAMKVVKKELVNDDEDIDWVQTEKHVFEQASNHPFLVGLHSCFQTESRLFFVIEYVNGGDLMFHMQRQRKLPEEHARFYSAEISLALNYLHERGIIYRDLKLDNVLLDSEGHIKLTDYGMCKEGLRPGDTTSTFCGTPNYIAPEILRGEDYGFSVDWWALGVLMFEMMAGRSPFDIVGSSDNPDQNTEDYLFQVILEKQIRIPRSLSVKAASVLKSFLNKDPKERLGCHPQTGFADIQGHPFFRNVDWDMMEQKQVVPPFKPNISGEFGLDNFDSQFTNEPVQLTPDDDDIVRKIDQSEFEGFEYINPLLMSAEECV
Chain of ILK (Q13418 whole entry): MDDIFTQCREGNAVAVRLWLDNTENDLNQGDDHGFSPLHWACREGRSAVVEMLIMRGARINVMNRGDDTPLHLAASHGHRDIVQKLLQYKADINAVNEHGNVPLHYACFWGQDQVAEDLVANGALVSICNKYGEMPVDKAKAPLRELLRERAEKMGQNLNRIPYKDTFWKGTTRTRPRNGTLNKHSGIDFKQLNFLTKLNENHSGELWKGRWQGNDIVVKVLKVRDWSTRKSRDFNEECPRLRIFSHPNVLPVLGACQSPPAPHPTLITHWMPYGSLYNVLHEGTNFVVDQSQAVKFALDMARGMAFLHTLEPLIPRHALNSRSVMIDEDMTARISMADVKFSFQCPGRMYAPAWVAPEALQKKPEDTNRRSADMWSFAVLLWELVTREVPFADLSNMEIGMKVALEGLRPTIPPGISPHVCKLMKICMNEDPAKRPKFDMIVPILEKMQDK
Chain of MAPKAPK3 (Q16644 whole entry): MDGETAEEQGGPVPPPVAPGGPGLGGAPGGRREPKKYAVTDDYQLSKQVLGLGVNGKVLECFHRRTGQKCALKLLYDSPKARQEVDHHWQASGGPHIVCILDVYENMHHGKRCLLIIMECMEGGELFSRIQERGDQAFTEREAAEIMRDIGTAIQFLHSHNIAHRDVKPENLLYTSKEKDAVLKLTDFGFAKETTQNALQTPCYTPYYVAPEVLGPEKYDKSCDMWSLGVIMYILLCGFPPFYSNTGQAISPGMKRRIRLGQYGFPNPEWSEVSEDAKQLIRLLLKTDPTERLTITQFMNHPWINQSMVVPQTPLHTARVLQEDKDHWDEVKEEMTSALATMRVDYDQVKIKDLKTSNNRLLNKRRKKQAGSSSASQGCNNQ
Chain of PLK1 (P53350 whole entry): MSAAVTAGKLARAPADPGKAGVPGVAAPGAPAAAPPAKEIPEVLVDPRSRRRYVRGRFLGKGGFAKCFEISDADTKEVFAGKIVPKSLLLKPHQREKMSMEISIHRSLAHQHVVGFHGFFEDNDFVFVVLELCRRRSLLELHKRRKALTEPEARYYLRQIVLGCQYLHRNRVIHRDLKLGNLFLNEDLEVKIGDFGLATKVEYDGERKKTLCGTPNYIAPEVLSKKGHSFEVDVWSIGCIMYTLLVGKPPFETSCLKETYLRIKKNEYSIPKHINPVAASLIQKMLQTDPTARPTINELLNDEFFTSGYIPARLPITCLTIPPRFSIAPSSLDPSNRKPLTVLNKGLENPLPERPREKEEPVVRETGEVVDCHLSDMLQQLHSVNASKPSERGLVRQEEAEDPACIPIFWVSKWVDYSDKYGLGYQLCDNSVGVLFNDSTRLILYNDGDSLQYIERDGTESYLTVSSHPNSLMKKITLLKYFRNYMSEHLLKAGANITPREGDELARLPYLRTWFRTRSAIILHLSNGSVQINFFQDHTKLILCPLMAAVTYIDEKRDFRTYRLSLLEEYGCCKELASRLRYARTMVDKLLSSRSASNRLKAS
Experimental for AAK1: Kinobeads were prepared as described [25, 26]. […] Briefly, Kinobeads were washed and equilibrated in lysis buffer (50 mM Tris-Cl, pH 7.4, 0.4% Igepal-CA630, 1.5 mM MgCl2, 5% Glycerol, 150 mM NaCl, 25 mM NaF, 1 mM Na3VO4, 1 mM DTT, and 1 complete EDTA-free protease inhibitor tablet (Roche) per 25 ml). […] Digestion, labeling with TMT isobaric mass tags, peptide fractionation, and mass spectrometric analyses were performed essentially as described [27]. Criteria for protein quantification were: a minimum of 2 sequence assignments matching to unique peptides was required (FDR for quantified proteins <<0.1%), Mascot ion score > 15, signal to background ratio of the precursor ion > 4, signal to interference > 0.5 [28]. Reporter ion intensities were multiplied by ion accumulation time, yielding an area value proportional to the number of reporter ions present in the mass analyzer. Peptide fold changes were corrected for isotope purity as described and adjusted for interference caused by co-eluting nearly isobaric peaks as estimated by the signal-to-interference measure [29]. Protein quantification was achieved using a sum-based bootstrap algorithm [30]. Apparent dissociation constants were determined by taking into account the protein depletion by the beads as described [27].
Kinobeads were incubated with K562 cell extract either in the presence of vehicle (DMSO) or TCAMS compound, respectively (20 μM-0.03 μM). Protein kinases captured by the beads (140–150 kinases per experiment) were quantified following tryptic digestion, isobaric peptide tagging, and LC-MS/MS analysis. Kinases were identified as potential targets by virtue of their reduced capture in the presence of excess TCAMS compounds. Apparent dissociation constants (Kd’s) were calculated from the extent to which capture of each kinase was reduced at each compound concentration.

Regarding `CN1CCN(c2ccc(Nc3ncc(C#N)c(Nc4ccccc4C(N)=O)n3)cc2)CC1.Cl` [TCMDC-134116], the IC50 was 1500 nM at PRKACA; 600 nM against STK38L; 620 nM at BMX; 1100 nM against PIK3C3; 1300 nM against KIT; over 20000 nM at MAPKAPK3. In addition, the IC50 against PKG came out at 103 nM; in [1] it was 188 nM. The PCT_INHIB_3D7_PFLDH in the experiment on 3D7 PFLDH is given as 0%. In the experiment with DD2 [2], the PCT_INHB_DD2 is recorded as 93%. The values for the Kd on LOC100128443 and on ABL1 were 199 nM and 58.6 nM, respectively.

`Cl.NCC1(c2nc(-c3ccc(Cl)c(O)c3)c(-c3ccncc3)[nH]2)CCCCC1` [TCMDC-141154]: the half-maximal inhibitory concentration (IC50) against ILK, on PLK1, on HIPK2, on HIPK1, at LRRK2 and at AAK1 was over 20000 nM throughout. Further, the PCT_INHB_DD2 with DD2 [3] is 98. Moreover, the “abundance relative to vehicle TMT126” value at AAK1 (AAK1, K-562 extract, conc. series 20.0, 4.0, 0.8, 0.16, 0.032, 0.0uM, channel assignment not given) came to 0.86. Also, on AAK1 (setting [4]), the “abundance relative to vehicle TMT127L” value came to 0.83. In addition, the “abundance relative to vehicle TMT128H” value on AAK1 (setting [4]) is 0.89. Besides, the “abundance relative to vehicle TMT129L” value at AAK1 (setting [4]) is 1.02. In addition, the “abundance relative to vehicle TMT130H” value on AAK1 (setting [4]) is 1.01. At AAK1 (AAK1, kinobead competition curve), this compound gave a Hill of 0.56.

For `CN(C)CC(O)COc1ccc(Nc2ncc([N+](=O)[O-])c(Nc3ccccc3O)n2)cc1.O=C(O)C(F)(F)F` (stereo not drawn) [TCMDC-141399], the IC50 on PRKCI was over 20000 nM; against TAOK1, 6100 nM; at ARAF, over 20000 nM; against RPS6KB1, over 20000 nM. Further, in the experiment on P. falciparum DD2, the PCT_INHB_DD2 is 20.

What is called IC50 is the concentration needed to halve the response being measured.
